Assay results as given in ChEMBL document CHEMBL1135829, “Investigations on estrogen receptor binding. The estrogenic, antiestrogenic, and cytotoxic properties of C2-alkyl-substituted 1,1-bis(4-hydroxyphenyl)-2-phenylethenes” (J Med Chem, 2002).
pIC50: −log10 of the molar value.

Legend:
Estrogen receptor = target: T1, Estrogen receptor (Homo sapiens, UniProt P03372); assay: Antiestrogenic activity in MCF-7-2a cells as concentration required to reduce estradiol effect by 50%; assay type: functional, cell-based
T1 sequence (P03372 whole entry): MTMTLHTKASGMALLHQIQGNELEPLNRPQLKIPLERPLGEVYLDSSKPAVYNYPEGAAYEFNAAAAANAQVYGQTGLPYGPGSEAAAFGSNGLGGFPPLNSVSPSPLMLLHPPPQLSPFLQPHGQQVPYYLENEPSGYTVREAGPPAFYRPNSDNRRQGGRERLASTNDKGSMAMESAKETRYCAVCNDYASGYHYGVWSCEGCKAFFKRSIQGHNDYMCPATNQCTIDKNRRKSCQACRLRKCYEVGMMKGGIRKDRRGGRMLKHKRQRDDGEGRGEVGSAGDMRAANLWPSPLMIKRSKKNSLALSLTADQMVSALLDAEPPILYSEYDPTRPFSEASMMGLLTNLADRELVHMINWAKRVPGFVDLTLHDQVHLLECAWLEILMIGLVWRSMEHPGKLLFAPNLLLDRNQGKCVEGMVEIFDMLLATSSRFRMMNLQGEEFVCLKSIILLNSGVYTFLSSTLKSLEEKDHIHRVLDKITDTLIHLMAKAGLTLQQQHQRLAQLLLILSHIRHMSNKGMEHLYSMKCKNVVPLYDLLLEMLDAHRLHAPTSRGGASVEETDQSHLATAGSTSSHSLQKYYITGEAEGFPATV

MCF-7 (Homo sapiens) [1] = assay: Cytotoxicity against MCF-7 cells at 5 uM.
MCF-7 (Homo sapiens) [2] = assay: Antitumor activity against MCF-7 cells at 5 uM.

Row | SMILES | pIC50 (Estrogen receptor) | Cytotoxicity (MCF-7 (Homo sapiens) [1]) | Cytotoxicity (MCF-7 (Homo sapiens) [2])
1 | CCC(=C(c1ccc(O)cc1)c1ccc(O)cc1)c1ccccc1 | 7.82 | 99% | 
2 | CC(=C(c1ccc(O)cc1)c1ccc(O)cc1)c1ccccc1 | 7.52 | 90% | 
3 | CCCCC(=C(c1ccc(O)cc1)c1ccc(O)cc1)c1ccccc1 | 6.30 |  | 87%
4 | Oc1ccc(C(=C(CC(F)(F)F)c2ccccc2)c2ccc(O)cc2)cc1 | 8.05 | 68% | 
5 | CCCC(=C(c1ccc(O)cc1)c1ccc(O)cc1)c1ccccc1 | 7.30 | 98% | 
6 | Oc1ccc(C(=Cc2ccccc2)c2ccc(O)cc2)cc1 | 6.82 |  | 92%
7 | CC/C(=C(\c1ccccc1)c1ccc(O)cc1)c1ccccc1 | 8.15 |  | 25%
8 | CC/C(=C(\c1ccccc1)c1ccc(OCCN(C)C)cc1)c1ccccc1 [TAMOXIFEN] |  |  | 15%
